Data as given in patent US20260167673A1, “NOVEL POLYPEPTIDE, POLYPEPTIDE DERIVATIVE AND USE THEREOF” (NANJING ANJI BIOTECHNOLOGY CO., LTD., priority 2023, published 2026).
Marks after values point to notes of the source that are not given here. Where no end group is shown, it is not given here.

Columns and labels:
Format in all cases: cell-based
[1] = system: human fibrosarcoma cells HT-1080; assay: CCK8 proliferation inhibition, HT-1080; settings: HT-1080, 50 μM, 48 h
Procedure: (§1) Incubation was continued for 4 h in a cell incubator, an absorbance was measured at 450 nm, and a proliferation inhibition was calculated. Data was presented as mean±SD, and GraphPad Prism 5.0 statistical software was used. A t-test was used for comparison between two groups, while One-way Anova (Dunnett) was used for comparison among a plurality of groups.

[2] = system: human acute myeloid leukemia cells KG-1; assay: CCK8 proliferation inhibition, KG-1; settings: KG-1, 50 μM, 48 h
Procedure: as §1

[3] = system: human bladder transitional cell carcinoma cells T24; assay: CCK8 proliferation inhibition, T24; settings: T24, 50 μM, 48 h
Procedure: as §1

[4] = system: human ovarian cancer Skvo3 cells; assay: Transwell metastasis inhibition, Skvo3; settings: 48 h
Procedure: (§2) Melanoma, cervical cancer, ovarian cancer, liver cancer, and lung cancer cells were seeded into transwell chambers, with 100 μL per well. Different doses of the HMMW micropeptide and the novel polypeptide HMMW15-51 were added to each chamber as a treatment group, while no drug was added to a blank group. Then, 0.6 mL of a complete culture medium containing 10% FBS was added to the lower chambers of the transwell to stimulate cell metastasis, and the cells were cultured at 5% CO2 and 37° C. for 48 h. The culture solution was discarded from the wells. The cells were fixed with methanol at room temperature for 30 min, stained with 0.1% crystal violet at room temperature for 10 min, and rinsed with clean water. The upper layer nonmetastatic cells were wiped off with a cotton swab. The cells were observed under a microscope, and four fields of view were selected to take photos and count the cells. A metastasis inhibition (MI) was calculated according to a formula: […]
(§3) where Ntest represents the number of cell metastases in the treatment group, and Ncontrol represents the number of cell metastases in the blank control group.
(§4) Data was presented as mean±SD, and GraphPad Prism 5.0 statistical software was used.

[5] = system: human non-small cell lung cancer cells A549; assay: CCK8 proliferation inhibition, A549; settings: A549, 50 μM, 48 h
Procedure: as §1

[6] = system: human chronic myeloid leukemia cells K562; assay: CCK8 proliferation inhibition, K562; settings: K562, 50 μM, 48 h
Procedure: as §1

[7] = system: human colon cancer cells HT29; assay: CCK8 proliferation inhibition, HT29; settings: HT29, 50 μM, 48 h
Procedure: as §1

[8] = system: human cholangiocarcinoma cells QBC939; assay: CCK8 proliferation inhibition, QBC939; settings: QBC939, 50 μM, 48 h
Procedure: as §1

[9] = system: human T lymphoblastic leukemia cells Jurkat, Clone E6-1; assay: CCK8 proliferation inhibition, Jurkat, Clone E6-1; settings: Clone E6-1, 50 μM, 48 h
Procedure: as §1

[10] = system: human liver cancer cells HepG2; assay: CCK8 proliferation inhibition, HepG2; settings: HepG2, 50 μM, 48 h
Procedure: as §1

[11] = system: human melanoma A375 cells; assay: Transwell metastasis inhibition, A375; settings: 48 h
Procedure: as §2, §3, §4

[12] = system: human esophageal cancer cells TE-13; assay: CCK8 proliferation inhibition, TE-13; settings: TE-13, 50 μM, 48 h
Procedure: as §1

[13] = system: human prostate cancer cells PC-3; assay: CCK8 proliferation inhibition, PC-3; settings: PC-3, 50 μM, 48 h
Procedure: as §1

[14] = system: human cervical cancer cells Hela; assay: CCK8 proliferation inhibition, Hela; settings: 50 μM, 48 h
Procedure: as §1

[15] = system: human prostate cancer cells 22RV1; assay: CCK8 proliferation inhibition, 22RV1; settings: 22RV1, 50 μM, 48 h
Procedure: as §1

[16] = system: human neuroblastoma cells SH-SY5Y; assay: CCK8 proliferation inhibition, SH-SY5Y; settings: 50 μM, 48 h
Procedure: as §1

[17] = system: human laryngeal epidermoid carcinoma cells HEp2; assay: CCK8 proliferation inhibition, HEp2; settings: HEp2, 50 μM, 48 h
Procedure: as §1

[18] = system: human gastric cancer cells MGC-803; assay: CCK8 proliferation inhibition, MGC-803; settings: MGC-803, 50 μM, 48 h
Procedure: as §1

[19] = system: human tongue squamous cell carcinoma cells CAL27; assay: CCK8 proliferation inhibition, CAL27 (Example 5); settings: CAL27, 50 μM, 48 h
Procedure: as §1

[20] = system: human breast cancer cells MDA-MB-231; assay: CCK8 proliferation inhibition, MDA-MB-231; settings: MDA-MB-231, 50 μM, 48 h
Procedure: as §1

[21] = system: human cervical cancer Hela cells; assay: Transwell metastasis inhibition, Hela; settings: 50 μmol/L, 48 h
Procedure: as §2, §3, §4

[22] = system: human liver cancer cells HCCLM3; assay: CCK8 proliferation inhibition, HCCLM3; settings: HCCLM3, 50 μM, 48 h
Procedure: as §1

[23] = system: human osteosarcoma cells MG63; assay: CCK8 proliferation inhibition, MG63; settings: MG63, 50 μM, 48 h
Procedure: as §1

[24] = system: human lung adenocarcinoma cells SPC-A1; assay: CCK8 proliferation inhibition, SPC-A1; settings: SPC-A1, 50 μM, 48 h
Procedure: as §1

[25] = system: human acute lymphoblastic leukemia cells CEM/C1; assay: CCK8 proliferation inhibition, CEM/C1; settings: CEM/C1, 50 μM, 48 h
Procedure: as §1

[26] = system: human lung squamous cell carcinoma cells SK-MES-1; assay: CCK8 proliferation inhibition, SK-MES-1; settings: SK-MES-1, 50 μM, 48 h
Procedure: as §1

## MERAGVPGFSPRRSSVEAKMQSTSCSVRKSSTVTAWPAVVLLLSWGQRRGG [HMMW]
[1]
  Inhibition (%): 53.092 ± 4.138 %
  OD: 0.432 ± 0.038
[2]
  Inhibition (%): 37.600 ± 5.989 %
  OD: 0.725 ± 0.070
[3]
  Inhibition (%): 51.562 ± 4.780 %
  OD: 0.460 ± 0.045
[4]; Skvo3, 50 μmol/L
  Number of cell metastases: 118 ± 26.16
[4]; Skvo3 metastasis, 50 μmol/L
  Inhibition (%): 89.60*** %
[5]
  Inhibition (%): 52.950 ± 2.023 %
  OD: 0.508 ± 0.022
[6]
  Inhibition (%): 51.933 ± 2.838 %
  OD: 0.618 ± 0.036
[7]
  Inhibition (%): 50.805 ± 2.422 %
  OD: 0.479 ± 0.024
[8]
  Inhibition (%): 49.490 ± 2.138 %
  OD: 0.429 ± 0.018
[9]
  Inhibition (%): 44.307 ± 3.404 %
  OD: 0.602 ± 0.037
[10]
  Inhibition (%): 52.579 ± 2.504 %
  OD: 0.509 ± 0.027
[11]; A375, 50 μmol/L
  Number of cell metastases: 371 ± 13.00
[11]; A375 metastasis, 50 μmol/L
  Inhibition (%): 37.13*** %
[12]
  Inhibition (%): 53.060 ± 1.911 %
  OD: 0.389 ± 0.016
[13]
  Inhibition (%): 50.341 ± 3.864 %
  OD: 0.509 ± 0.040
[14]
  Inhibition (%): 52.644 ± 4.018 %
  OD: 0.493 ± 0.049
[15]
  Inhibition (%): 50.463 ± 1.693 %
  OD: 0.552 ± 0.019
[16]
  Inhibition (%): 50.542 ± 4.982 %
  OD: 0.486 ± 0.049
[17]
  Inhibition (%): 42.416 ± 2.236 %
  OD: 0.504 ± 0.020
[18]
  Inhibition (%): 41.094 ± 3.077 %
  OD: 0.675 ± 0.035
[19]
  Inhibition (%): 67.115 ± 5.457 %
  OD: 0.383 ± 0.064
[20]
  Inhibition (%): 65.216 ± 4.512 %
  OD: 0.429 ± 0.056
[21]; Hela metastasis
  Inhibition (%): 88.80*** %
[21]; Hela
  Number of cell metastases: 115 ± 20.32
[22]
  Inhibition (%): 53.926 ± 7.634 %
  OD: 0.460 ± 0.076
[23]
  Inhibition (%): 52.544 ± 2.562 %
  OD: 0.435 ± 0.024
[24]
  Inhibition (%): 49.128 ± 3.053 %
  OD: 0.525 ± 0.032
[25]
  Inhibition (%): 46.518 ± 1.484 %
  OD: 0.630 ± 0.017
[26]
  Inhibition (%): 54.910 ± 4.426 %
  OD: 0.435 ± 0.043
